The subject of data set [1] is ΦX174 plasmid DNA. In words: Interaction with ΦX174 plasmid DNA, gel electrophoretic mobility shift. The following applies: [complex]/[bp] 0.018-1.8/1, water, 37° C., 22 h, agarose gel. Format: binding. The method, then: (§1) ΦX174 plasmids were purchased from Promega and used without further purification. ΦX174 RF plasmid DNA (0.1 mg) was mixed with the corresponding rhenium complexes in H2O at [complex]/[bp] 0.018-1.8/1. The mixtures were incubated in water at 37° C. for 22 h in the dark before analyzing by gel electrophoresis. The pH of the mixtures remained constant at ≈7 in all cases.
(§2) DNA binding was examined by gel electrophoretic mobility shift assays through 9 cm 0.75% agarose slab gels with TAE running buffer. The gels were run at RT, with voltages varying between 50 and 75 V. Running time depended upon the voltage and were usually between 1.5-2 h. The resultant gels were stained with ethidium bromide in the buffer at a concentration of ≈0.3 μg/mL. Bands were visualized by […] UV transillumination equipped with a digital camera.

The test system of data set [2] is ΦX174 plasmid DNA. In words: Stability of the [M(CO)3]+ ΦX174 plasmid DNA adduct, histidine challenge. Conditions: 100-fold excess of histidine. Format: binding. The method, then:
as §1, §2
Complexes 1 and 7 were incubated with ΦX174 plasmid DNA as described in Example 6. Subsequently, the plasmid was challenged with histidine to cleave the complexes from ΦX174 plasmid DNA.

For data set [3], the system named is MDA-MB-4355 Breast Cancer Cells. In words: XTT cell proliferation assay, breast cancer cells. The arrangement: species or system human. The following applies: 200 μM based on Re, 24 h. The method, then:
(§3) In a typical experiment (see FIG. 10) an average of 2000 cells were grown in microtiter plates (tissue culture grade, 96 wells, flat bottom) in a final volume of 100 μL culture medium per well in a humidified-atmosphere (37° C., >6.5% CO2). After 24 h the rhenium complex was added the wells (final concentrations 200 μM based on Re) and the cells were grown for further 24 h under a humidified atmosphere. After the incubation period 50 μL of the XTT labeling mixture were added to each well. The plates were incubated again for 4 h. After the this final incubation period the spectrophotometrical absorbance (optical density OD) of each well was measured at 450 nm.
(§4) Control experiments were performed as described above without the addition of the rhenium compounds. Blanks were obtained by adding 50 μL of H2O instead of the XTT labeling mixture. Experiments were done in double and the results represent the average.
(§5) The % of cell survival was calculated base on the relative OD of the samples. Maximum control OD was set to 100% cell survival.
On the technique in general: Tetrazolium dyes change colour on reduction, which living cells bring about.

Data set [4] concerns OVMZ-6-WT Ovarian Cancer Cells. In words: XTT cell proliferation assay, ovarian cancer cells. The arrangement: species or system human. The following applies: 200 μM based on Re, 24 h. The method, then:
as §3, §4, §5
(§6) The procedure is as described in Example 10 and FIG. 10. Only the cancer cell line varies.

In data set [5] the test system is B16 F1 mouse melanoma cells. In words: XTT cell proliferation assay, melanoma cells. The following applies: 200 μM based on Re (lower for poorly soluble complexes), 24 h. The method, then: as §3, §4, §5, §6

As to `N.N.[Cl][Pt][Cl]` [cisplatin, reference compound], in data set [1], the “scrambling (structural change) of ΦX174 plasmid DNA” value was “increased amount of scrambling”.

On to (Et4N)2[ReBr3(CO)3] [Complex 1], for which the “release of complex from ΦX174 plasmid DNA by histidine” value in data set [2] was “no release could be observed”. The results for the “cytotoxicity (% of cell survival)” value in data set [3], in data set [4] and in data set [5] were “inhibit cell proliferation”, “inhibits cell proliferation” and “strongly inhibit cell proliferation”, respectively.

On to “[Re(9-MeG)2(H2O) (CO)3] (ClO4) [Complex 3]”, for which the “cytotoxicity (% of cell survival)” value in data set [3] is “inhibit cell proliferation”.

Source of the values: patent US20070071672A1, “Use of metal tricarbonyl complexes as radiotherapeutic chemotoxic agents” (priority 2003, published 2007).
